Experimental data: the NIST ThermoML archive (doi:10.1021/je034259j)
± gives the expanded uncertainty stated by the source.

Settings: Liquid; for mass density: 298.15 K; for mass density / molar volume: 101.33 kPa; for molar volume / vapor or sublimation pressure: 313.15 K; for molar volume: Vibrating tube method; for vapor or sublimation pressure: Ebulliometric method (Recirculating still)

Compound	mass density	molar volume	vapor or sublimation pressure
ClCBr [bromochloromethane]	1924.88 ± 1.3 kg/m3	6.9e-05 ± 1e-06 m3/mol	37.28 ± 0.43 kPa
BrCBr [dibromomethane]	2478.37 ± 2.3 kg/m3	7.1e-05 ± 1e-06 m3/mol	13.01 ± 0.15 kPa
ClCCBr [1-bromo-2-chloroethane]	1727.88 ± 1.9 kg/m3	8.4e-05 ± 1e-06 m3/mol	8.91 ± 0.1 kPa
ClCCCl [1,2-dichloroethane]	1246.59 ± 0.41 kg/m3	8.1e-05 ± 1e-06 m3/mol	21.05 ± 0.2 kPa
CCOC(C)=O [ethyl acetate]	894.97 ± 0.27 kg/m3	0.000101 ± 1e-06 m3/mol	25.3 ± 0.2 kPa
